The numbers were not newly measured in patent publication US20080247966A1, “Compositions and Methods to Counteract Oral Malodour” (GIVAUDAN SA, priority 2005, published 2008), which cites them from elsewhere.

Molecules are shown by their SMILES.

The subject of this series is microorganisms such as yeasts. The note with it: oral care compositions with C1-C4 lower alcohols, WO 99/51093.

Take `CCCCCCCCO` [octanol, octan-1-ol]: the “effect on microorganisms such as yeasts” value is reported as “no effect”.
